{"source": "patent US11260049B2", "about": "“TRPV4 antagonists” (GlaxoSmithKline Intellectual Property (No. 2) Limited, priority 2016, dated 2022)", "data": [{"target": "human TRPV4 (Homo sapiens (Human), UniProt Q9HBA0)", "sequence (Q9HBA0 whole entry)": "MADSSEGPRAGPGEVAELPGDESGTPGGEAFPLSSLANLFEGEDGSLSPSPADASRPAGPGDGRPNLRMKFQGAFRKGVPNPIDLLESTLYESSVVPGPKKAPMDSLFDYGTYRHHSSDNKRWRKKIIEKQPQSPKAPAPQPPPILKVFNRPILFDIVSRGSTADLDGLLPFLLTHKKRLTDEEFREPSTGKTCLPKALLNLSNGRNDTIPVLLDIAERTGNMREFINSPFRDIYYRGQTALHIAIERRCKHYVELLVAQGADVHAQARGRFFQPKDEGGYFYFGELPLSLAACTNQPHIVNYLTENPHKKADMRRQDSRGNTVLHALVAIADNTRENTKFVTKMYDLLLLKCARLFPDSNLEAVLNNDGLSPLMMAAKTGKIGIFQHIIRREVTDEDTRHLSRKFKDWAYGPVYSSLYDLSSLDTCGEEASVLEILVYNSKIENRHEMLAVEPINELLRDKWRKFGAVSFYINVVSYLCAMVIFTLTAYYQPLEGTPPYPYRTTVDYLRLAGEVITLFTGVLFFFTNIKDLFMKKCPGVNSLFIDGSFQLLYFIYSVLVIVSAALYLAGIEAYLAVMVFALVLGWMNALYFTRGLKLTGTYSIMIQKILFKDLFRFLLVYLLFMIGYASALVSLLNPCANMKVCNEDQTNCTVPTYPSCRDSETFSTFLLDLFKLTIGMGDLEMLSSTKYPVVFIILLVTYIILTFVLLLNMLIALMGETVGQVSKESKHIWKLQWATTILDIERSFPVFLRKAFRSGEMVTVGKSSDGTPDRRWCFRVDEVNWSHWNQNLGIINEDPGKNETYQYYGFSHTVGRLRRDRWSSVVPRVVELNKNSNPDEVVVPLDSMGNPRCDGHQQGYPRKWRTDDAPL", "experiment": "FLIPR assay for hTRPV4 expressed in BHK cells", "type": "cell-based", "conditions": "inhibition of Agonist Compound (EC80)-induced calcium signal; BHK/AC9 cells expressing human TRPV4; read-out: IC50", "description": "FLIPR Assay for hTRPV4 Expressed in BHK Cells:\nTRPV4 channel activation results in an influx of divalent and monovalent cations including calcium. The resulting changes in intracellular calcium were monitored using a calcium specific fluorescent dye Fluo-4 (MDS Analytical Technologies). BHK/AC9 cells transduced with BacMam virus expressing the human TRPV4 gene at a MOI of 78 were plated in a 384 well poly-D lysine coated plate (15,000 cells/well in 50 μL culture medium containing DMEM/F12 with 15 mM HEPES, 10% FBS, 1% Penicillin-Streptomycin and 1% L-glutamine). Cells were incubated for 24 hours at 37° C. and 5% CO2. Culture medium was then aspirated using a Tecan plate-washer and replaced with 20 μL/well of dye loading buffer: HBSS, 500 μM Brilliant Black (MDS Analytical Technologies), and 2 μM Fluo-4 AM. Dye loaded plates were then incubated in the dark at room temperature for 1˜1.5 hours.", "units": {"IC50": "µM"}, "values": [{"smiles": "N#Cc1ccc(S(=O)(=O)N2C[C@H](S(=O)(=O)c3ccc(C(F)(F)F)cc3)[C@](O)(CO)C2)c(OC2CC2)c1", "note": "[Example 57, 3-cyclopropoxy-4-(((3R,4S)-3-hydroxy-3-(hydroxymethyl)-4-((4-(trifluoromethyl)phenyl)sulfonyl)pyrrolidin-1-yl)sulfonyl)benzonitrile]", "IC50": "0.01 to 0.1"}, {"smiles": "Cc1ccc(S(=O)(=O)N2C[C@H](S(=O)(=O)c3ccc(C#N)cc3)[C@](O)(CO)C2)c(Cl)c1", "note": "[Example 58, 4-(((3S,4R)-1-((2-chloro-4-methylphenyl)sulfonyl)-4-hydroxy-4-(hydroxymethyl)pyrrolidin-3-yl)sulfonyl)benzonitrile]", "IC50": "0.01 to 0.1"}, {"smiles": "N#Cc1ccc(S(=O)(=O)[C@H]2CN(S(=O)(=O)c3ccc(Cl)cc3Br)C[C@@]2(O)CO)cc1", "note": "[Example 59, 4-(((3S,4R)-1-((2-bromo-4-chlorophenyl)sulfonyl)-4-hydroxy-4-(hydroxymethyl)pyrrolidin-3-yl)sulfonyl)benzonitrile]", "IC50": "0.0001 to 0.01"}, {"smiles": "COc1ccc(S(=O)(=O)N2C[C@H](S(=O)(=O)c3ccc(C#N)cc3)[C@](O)(CO)C2)c(Br)c1", "note": "[Example 60, 4-(((3S,4R)-1-((2-bromo-4-methoxyphenyl)sulfonyl)-4-hydroxy-4-(hydroxymethyl)pyrrolidin-3-yl)sulfonyl)benzonitrile]", "IC50": "0.01 to 0.1"}, {"smiles": "N#Cc1ccc(S(=O)(=O)N2C[C@H](S(=O)(=O)c3ccc(C(F)(F)F)cn3)[C@](O)(CO)C2)c(OC2CC2)c1", "note": "[Example 61, 3-cyclopropoxy-4-(((3R,4S)-3-hydroxy-3-(hydroxymethyl)-4-((5-(trifluoromethyl)pyridin-2-yl)sulfonyl)pyrrolidin-1-yl)sulfonyl)benzonitrile]", "IC50": "0.01 to 0.1"}, {"smiles": "N#Cc1ccc(S(=O)(=O)[C@H]2CN(S(=O)(=O)c3ccc(F)cc3Cl)C[C@@]2(O)CO)cc1", "note": "[Example 62, 4-(((3S,4R)-1-((2-chloro-4-fluorophenyl)sulfonyl)-4-hydroxy-4-(hydroxymethyl)pyrrolidin-3-yl)sulfonyl)benzonitrile]", "IC50": "0.01 to 0.1"}, {"smiles": "N#Cc1ccc(S(=O)(=O)[C@H]2CN(S(=O)(=O)c3cc(F)c(Cl)cc3Cl)C[C@@]2(O)CO)cc1", "note": "[Example 63, 4-(((3S,4R)-1-((2,4-dichloro-5-fluorophenyl)sulfonyl)-4-hydroxy-4-(hydroxymethyl)pyrrolidin-3-yl)sulfonyl)benzonitrile]", "IC50": "0.01 to 0.1"}, {"smiles": "COC(=O)c1ccc(S(=O)(=O)[C@H]2CN(S(=O)(=O)c3ccc(Cl)cc3C(F)F)C[C@@]2(O)CO)cc1", "note": "[Example 64]", "IC50": "0.01 to 0.1"}, {"smiles": "O=S(=O)(c1ccc(Cl)cc1)[C@H]1CN(S(=O)(=O)c2ccc(Cl)cc2C(F)F)C[C@@]1(O)CO", "note": "[Example 65, (3R,4S)-1-((4-chloro-2-(difluoromethyl)phenyl)sulfonyl)-4-((4-chlorophenyl)sulfonyl)-3-(hydroxymethyl)pyrrolidin-3-ol]", "IC50": "0.01 to 0.1"}, {"smiles": "N#CCc1cc(Cl)ccc1S(=O)(=O)N1C[C@H](S(=O)(=O)c2ccc(Cl)cc2)[C@](O)(CO)C1", "note": "[Example 66, 2-(5-chloro-2-(((3R,4S)-4-((4-chlorophenyl)sulfonyl)-3-hydroxy-3-(hydroxymethyl)pyrrolidin-1-yl)sulfonyl)phenyl)acetonitrile]", "IC50": "0.01 to 0.1"}, {"smiles": "O=S(=O)(c1ccc(Cl)cc1)[C@H]1CN(S(=O)(=O)c2cccnc2OC(F)F)C[C@@]1(O)CO", "note": "[Example 67, (3R,4S)-4-((4-chlorophenyl)sulfonyl)-1-((2-(difluoromethoxy)pyridin-3-yl)sulfonyl)-3-(hydroxymethyl)pyrrolidin-3-ol]", "IC50": "0.01 to 0.1"}, {"smiles": "N#Cc1ccc(S(=O)(=O)N2C[C@H](S(=O)(=O)c3nccs3)[C@](O)(CO)C2)c(Cl)c1", "note": "[Example 68, 3-chloro-4-(((3R,4S)-3-hydroxy-3-(hydroxymethyl)-4-(thiazol-2-ylsulfonyl)pyrrolidin-1-yl)sulfonyl)benzonitrile]", "IC50": "0.01 to 0.1"}, {"smiles": "N#Cc1ccc(S(=O)(=O)[C@H]2CN(S(=O)(=O)c3ccc(C(F)(F)F)cc3F)C[C@@]2(O)CO)cc1F", "note": "[Example 69, 2-fluoro-4-(((3S,4R)-1-((2-fluoro-4-(trifluoromethyl)phenyl)sulfonyl)-4-hydroxy-4-(hydroxymethyl)pyrrolidin-3-yl)sulfonyl)benzonitrile]", "IC50": "0.01 to 0.1"}, {"smiles": "Cc1cc(C#N)ccc1S(=O)(=O)N1C[C@H](S(=O)(=O)c2ccc(C#N)c(F)c2)[C@](O)(CO)C1", "note": "[Example 70, 4-(((3S,4R)-1-((4-cyano-2-methylphenyl)sulfonyl)-4-hydroxy-4-(hydroxymethyl)pyrrolidin-3-yl)sulfonyl)-2-fluorobenzonitrile]", "IC50": "0.0001 to 0.01"}, {"smiles": "Cc1cc(C(F)(F)F)ccc1S(=O)(=O)N1C[C@H](S(=O)(=O)c2ccc(C#N)c(F)c2)[C@](O)(CO)C1", "note": "[Example 71, 2-fluoro-4-(((3S,4R)-4-hydroxy-4-(hydroxymethyl)-1-((2-methyl-4-(trifluoromethyl)phenyl)sulfonyl)pyrrolidin-3-yl)sulfonyl)benzonitrile]", "IC50": "0.01 to 0.1"}, {"smiles": "Cc1nc(C(F)(F)F)ccc1S(=O)(=O)N1C[C@H](S(=O)(=O)c2ccc(C#N)c(F)c2)[C@](O)(CO)C1", "note": "[Example 72, 2-fluoro-4-(((3S,4R)-4-hydroxy-4-(hydroxymethyl)-1-((2-methyl-6-(trifluoromethyl)pyridin-3-yl)sulfonyl)pyrrolidin-3-yl)sulfonyl)benzonitrile]", "IC50": "0.01 to 0.1"}, {"smiles": "N#Cc1ccc(S(=O)(=O)N2C[C@H](S(=O)(=O)c3ncc(Cl)s3)[C@](O)(CO)C2)c(Cl)c1", "note": "[Example 73, 3-chloro-4-(((3R,4S)-4-((5-chlorothiazol-2-yl)sulfonyl)-3-hydroxy-3-(hydroxymethyl)pyrrolidin-1-yl)sulfonyl)benzonitrile]", "IC50": "0.01 to 0.1"}, {"smiles": "N#Cc1ccc(S(=O)(=O)N2C[C@H](S(=O)(=O)c3ccc(Br)cc3)[C@](O)(CO)C2)c(Cl)c1", "note": "[Example 74, 4-(((3R,4S)-4-((4-bromophenyl)sulfonyl)-3-hydroxy-3-(hydroxymethyl)pyrrolidin-1-yl)sulfonyl)-3-chlorobenzonitrile]", "IC50": "0.0001 to 0.01"}, {"smiles": "N#Cc1ccc(S(=O)(=O)[C@H]2CN(S(=O)(=O)c3ccc(Cl)cc3Cl)C[C@]2(O)CO)cc1F", "note": "[Example 75, 4-(((3S,4S)-1-((2,4-dichlorophenyl)sulfonyl)-4-hydroxy-4-(hydroxymethyl)pyrrolidin-3-yl)sulfonyl)-2-fluorobenzonitrile]", "IC50": "0.0001 to 0.01"}, {"smiles": "O=S(=O)(c1ccc(Cl)c(F)c1)[C@H]1CN(S(=O)(=O)c2ccc(Cl)cc2Cl)C[C@]1(O)CO", "note": "[Example 76, (3S,4S)-4-((4-chloro-3-fluorophenyl)sulfonyl)-1-((2,4-dichlorophenyl)sulfonyl)-3-(hydroxymethyl)pyrrolidin-3-ol]", "IC50": "0.01 to 0.1"}, {"smiles": "N#Cc1cc(C(F)(F)F)ccc1S(=O)(=O)N1C[C@H](S(=O)(=O)c2ccc(F)c(F)c2)[C@@](O)(CO)C1", "note": "[Example 77, 2-(((3S,4S)-4-((3,4-difluorophenyl)sulfonyl)-3-hydroxy-3-(hydroxymethyl)pyrrolidin-1-yl)sulfonyl)-5-(trifluoromethyl)benzonitrile]", "IC50": "0.01 to 0.1"}, {"smiles": "O=S(=O)(c1ccc(Cl)c(F)c1)[C@H]1CN(S(=O)(=O)c2ccc(C(F)(F)F)cc2Cl)C[C@]1(O)CO", "note": "[Example 78, (3S,4S)-4-((4-chloro-3-fluorophenyl)sulfonyl)-1-((2-chloro-4-(trifluoromethyl)phenyl)sulfonyl)-3-(hydroxymethyl)pyrrolidin-3-ol]", "IC50": "0.01 to 0.1"}, {"smiles": "N#Cc1cc(F)c(S(=O)(=O)[C@H]2CN(S(=O)(=O)c3ccc(Cl)cc3Cl)C[C@]2(O)CO)cc1F", "note": "[Example 79, 4-(((3S,4S)-1-((2,4-dichlorophenyl)sulfonyl)-4-hydroxy-4-(hydroxymethyl)pyrrolidin-3-yl)sulfonyl)-2,5-difluorobenzonitrile]", "IC50": "0.01 to 0.1"}, {"smiles": "N#Cc1ccc(S(=O)(=O)[C@H]2CN(S(=O)(=O)c3ccc(C(F)(F)F)cc3Cl)C[C@]2(O)CO)cc1Cl", "note": "[Example 80, 2-chloro-4-(((3S,4S)-1-((2-chloro-4-(trifluoromethyl)phenyl)sulfonyl)-4-hydroxy-4-(hydroxymethyl)pyrrolidin-3-yl)sulfonyl)benzonitrile]", "IC50": "0.01 to 0.1"}, {"smiles": "N#Cc1ccc(S(=O)(=O)N2C[C@H](S(=O)(=O)c3ccc(Br)cn3)[C@@](O)(CO)C2)c(Cl)c1", "note": "[Example 81, 4-(((3S,4S)-4-((5-bromopyridin-2-yl)sulfonyl)-3-hydroxy-3-(hydroxymethyl)pyrrolidin-1-yl)sulfonyl)-3-chlorobenzonitrile]", "IC50": "0.01 to 0.1"}, {"smiles": "N#Cc1ccc(S(=O)(=O)[C@H]2CN(S(=O)(=O)c3ccc(Cl)cc3Cl)C[C@@]2(O)CO)cc1", "note": "[Example 82, 4-(((3S,4R)-1-((2,4-dichlorophenyl)sulfonyl)-4-hydroxy-4-(hydroxymethyl)pyrrolidin-3-yl)sulfonyl)benzonitrile]", "IC50": "0.0001 to 0.01"}, {"smiles": "N#Cc1ccc(S(=O)(=O)[C@H]2CN(S(=O)(=O)c3ccc(Cl)cc3Cl)C[C@@]2(O)CO)cc1F", "note": "[Example 83, 4-(((3S,4R)-1-((2,4-dichlorophenyl)sulfonyl)-4-hydroxy-4-(hydroxymethyl)pyrrolidin-3-yl)sulfonyl)-2-fluorobenzonitrile]", "IC50": "0.0001 to 0.01"}, {"smiles": "N#Cc1ccc(S(=O)(=O)[C@H]2CN(S(=O)(=O)c3ccc(Cl)cc3C#N)C[C@@]2(O)CO)cc1", "note": "[Example 84, 5-chloro-2-(((3R,4S)-4-((4-cyanophenyl)sulfonyl)-3-hydroxy-3-(hydroxymethyl)pyrrolidin-1-yl)sulfonyl)benzonitrile]", "IC50": "0.0001 to 0.01"}, {"smiles": "O=S(=O)(c1ccc(F)c(F)c1)[C@H]1CN(S(=O)(=O)c2ccc(Cl)cc2Cl)C[C@@]1(O)CO", "note": "[Example 85, (3R,4S)-1-((2,4-dichlorophenyl)sulfonyl)-4-((3,4-difluorophenyl)sulfonyl)-3-(hydroxymethyl)pyrrolidin-3-ol]", "IC50": "0.01 to 0.1"}]}]}
